Experimental data published in US4410626A, “Process for the production of 7α-methoxycephalosporin derivatives” (Yamanouchi Pharmaceutical Co. Ltd., priority 1978, dated 1983).
Converted amounts (≈) assume the structure as drawn.

What was measured:
[1] = system: Bacillus subtilis ATCC 6633; assay: Minimum inhibitory concentration, Bacillus subtilis; type: cell-based; conditions: ATCC6633
[2] = system: Staphylococcus aureus ATCC 6538F; assay: Minimum inhibitory concentration, Staphylococcus aureus; type: cell-based; conditions: ATCC6538F
Escherichia coli NIHJ = assay: Minimum inhibitory concentration, Escherichia coli; type: cell-based
[3] = system: Klebsiella pnuemoniae ATCC 10031; assay: Minimum inhibitory concentration, Klebsiella pnuemoniae; type: cell-based; conditions: ATCC10031
Salmonella typhi H901W = assay: Minimum inhibitory concentration, Salmonella typhi; type: cell-based; conditions: Salmonella enterica, read-out: Minimum inhibitory concentration
[4] = system: Salmonella enteritidis 1891; assay: Minimum inhibitory concentration, Salmonella enteritidis; type: cell-based; conditions: Salmonella enterica
Shigella boydii IID 627 = assay: Minimum inhibitory concentration, Shigella boydii; type: cell-based; conditions: IID627
Proteus mirabilis IMFOM9 = assay: Minimum inhibitory concentration, Proteus mirabilis; type: cell-based
Proteus vulgaris OXK US = assay: Minimum inhibitory concentration, Proteus vulgaris; type: cell-based
[5] = system: Pseudomonas aeruginosa NCTC 10490; assay: Minimum inhibitory concentration, Pseudomonas aeruginosa; type: cell-based; conditions: NCTC10490
Proteus mirabilis = assay: Antibacterial activity, plate disc method (diameter of inhibitory circle), Proteus mirabilis; type: cell-based; set-up: unit not given here; conditions: pH 8.0, plate disc method
From the text: (§1) 3. The antibacterial activities to Proteus mirabilis and Salmonella gallinarum are as follows:
(§2) Peptone 1%, yeast extract 0.1%, agaragar 1%, pH 8.0, plate disc method,
(§3) the numerical values are the diameters of inhibitory circles.

Salmonella gallinarum = assay: Antibacterial activity, plate disc method (diameter of inhibitory circle), Salmonella gallinarum; type: cell-based; conditions: pH 8.0, plate disc method
From the text: as §1, §2, §3

[6] = Solubility / hygroscopicity of the Na salt (physicochemical properties); conditions: for Solubility in methanol, ethanol, ethyl acetate, butyl acetate and other organic solvents: (n-)butanol (not named for compound C)

## COC(=Cc1ccc(OS(=O)(=O)O)cc1)C(=O)OCC1=C(C(=O)O)N2C(=O)[C@](NC(=O)CCC[C@@H](N)C(=O)O)(OC)[C@H]2SC1 [Comp. a, reference compound]
[1]
  MIC: 50 µg/mL (≈ 75.8 µM)
[2]
  MIC: > 100 µg/mL
Escherichia coli NIHJ
  MIC: 25 µg/mL (≈ 37.9 µM)
[3]
  MIC: 50 µg/mL (≈ 75.8 µM)
Salmonella typhi H901W
  MIC: 25 µg/mL (≈ 37.9 µM)
[4]
  MIC: 25 µg/mL (≈ 37.9 µM)
Shigella boydii IID 627
  MIC: 25 µg/mL (≈ 37.9 µM)
Proteus mirabilis IMFOM9
  MIC: 6.25 µg/mL (≈ 9.47 µM)
Proteus vulgaris OXK US
  MIC: 1.56 µg/mL (≈ 2.36 µM)
[5]
  MIC: > 100 µg/mL

## COC(=Cc1ccc(O)cc1)C(=O)OCC1=C(C(=O)O)N2C(=O)[C@](NC(=O)CCC[C@@H](N)C(=O)O)(OC)[C@H]2SC1 [Comp. b, reference compound]
[1]
  MIC: 6.25 µg/mL (≈ 10.8 µM)
[2]
  MIC: 100 µg/mL (≈ 173 µM)
Escherichia coli NIHJ
  MIC: 12.5 µg/mL (≈ 21.6 µM)
[3]
  MIC: 25 µg/mL (≈ 43.1 µM)
Salmonella typhi H901W
  MIC: 50 µg/mL (≈ 86.3 µM)
[4]
  MIC: 12.5 µg/mL (≈ 21.6 µM)
Shigella boydii IID 627
  MIC: 50 µg/mL (≈ 86.3 µM)
Proteus mirabilis IMFOM9
  MIC: 6.25 µg/mL (≈ 10.8 µM)
Proteus vulgaris OXK US
  MIC: 6.25 µg/mL (≈ 10.8 µM)
[5]
  MIC: > 100 µg/mL

## CO[C@@]1(NC(=O)CCC[C@@H](N)C(=O)O)C(=O)N2C(C(=O)O)=C(COC(=O)/C=C/c3ccc(OS(=O)(=O)O)cc3)CS[C@@H]21 [Compound (A), 7β-(D-5-Amino-5-carboxyvaleramido)-7α-methoxy-3-(p-sulfooxycinnamoyloxymethyl)-Δ^3-cephem-4-carboxylic acid]
Proteus mirabilis; 100 γ/ml
  diameter of inhibitory circle: 22.3
Proteus mirabilis; 500 γ/ml
  diameter of inhibitory circle: 28.7
Salmonella gallinarum; 100 γ/ml
  diameter of inhibitory circle: 17.0
Salmonella gallinarum; 500 γ/ml
  diameter of inhibitory circle: 21.5
[1]
  MIC: 12.5 µg/mL (≈ 19.9 µM)
[2]
  MIC: 100 µg/mL (≈ 159 µM)
Escherichia coli NIHJ
  MIC: 6.25 µg/mL (≈ 9.93 µM)
[3]
  MIC: 25 µg/mL (≈ 39.7 µM)
Salmonella typhi H901W
  MIC: 3.13 µg/mL (≈ 4.97 µM)
[4]
  MIC: 6.25 µg/mL (≈ 9.93 µM)
Shigella boydii IID 627
  MIC: 6.25 µg/mL (≈ 9.93 µM)
Proteus mirabilis IMFOM9
  MIC: 0.78 µg/mL (≈ 1.24 µM)
Proteus vulgaris OXK US
  MIC: 0.39 µg/mL (≈ 0.619 µM)
[5]
  MIC: > 100 µg/mL
[6]; ethyl acetate, butyl acetate
  Solubility in methanol, ethanol, ethyl acetate, butyl acetate and other organic solvents: scarcely
[6]
  Solubility in water: Easily soluble

## CO[C@@]1(NC(=O)CCCC(=O)O)C(=O)N2C(C(=O)O)=C(COC(=O)/C=C/c3ccc(OS(=O)(=O)O)cc3)CS[C@@H]21 [Compound (B), 7β-(4-Carboxybutyramido)-7α-methoxy-3-(p-sulfooxycinnamoyloxymethyl)-Δ^3-cephem-4-carboxylic acid]
Proteus mirabilis; 100 γ/ml
  diameter of inhibitory circle: 17.6
Proteus mirabilis; 500 γ/ml
  diameter of inhibitory circle: 27.2
Salmonella gallinarum; 100 γ/ml
  diameter of inhibitory circle: 14.2
Salmonella gallinarum; 500 γ/ml
  diameter of inhibitory circle: 18.3
[1]
  MIC: 100 µg/mL (≈ 167 µM)
[2]
  MIC: 100 µg/mL (≈ 167 µM)
Escherichia coli NIHJ
  MIC: 6.25 µg/mL (≈ 10.4 µM)
[3]
  MIC: 25 µg/mL (≈ 41.6 µM)
Salmonella typhi H901W
  MIC: 50 µg/mL (≈ 83.3 µM)
[4]
  MIC: 50 µg/mL (≈ 83.3 µM)
Shigella boydii IID 627
  MIC: 25 µg/mL (≈ 41.6 µM)
Proteus mirabilis IMFOM9
  MIC: 12.5 µg/mL (≈ 20.8 µM)
Proteus vulgaris OXK US
  MIC: 6.25 µg/mL (≈ 10.4 µM)
[5]
  MIC: > 100 µg/mL
[6]; ethyl acetate, butyl acetate
  Solubility in methanol, ethanol, ethyl acetate, butyl acetate and other organic solvents: scarcely soluble
[6]
  Solubility in water: Easily soluble

## CO[C@@]1(NC(=O)CCC[C@@H](N)C(=O)O)C(=O)N2C(C(=O)O)=C(COC(=O)/C=C/c3ccc(O)cc3)CS[C@@H]21 [Compound (C), 7β-(D-5-amino-5-carboxyvaleramido)-3-(p-hydroxycinnamoyloxymethyl)-7α-methoxy-Δ^3-cephem-4-carboxylic acid]
Proteus mirabilis; 100 γ/ml
  diameter of inhibitory circle: 22.0
Proteus mirabilis; 500 γ/ml
  diameter of inhibitory circle: 27.8
Salmonella gallinarum; 100 γ/ml
  diameter of inhibitory circle: 15.1
Salmonella gallinarum; 500 γ/ml
  diameter of inhibitory circle: 20.0
[1]
  MIC: 3.13 µg/mL (≈ 5.7 µM)
[2]
  MIC: 50 µg/mL (≈ 91 µM)
Escherichia coli NIHJ
  MIC: 3.13 µg/mL (≈ 5.7 µM)
[3]
  MIC: 3.13 µg/mL (≈ 5.7 µM)
Salmonella typhi H901W
  MIC: 12.5 µg/mL (≈ 22.7 µM)
[4]
  MIC: 1.56 µg/mL (≈ 2.84 µM)
Shigella boydii IID 627
  MIC: 6.25 µg/mL (≈ 11.4 µM)
Proteus mirabilis IMFOM9
  MIC: 0.78 µg/mL (≈ 1.42 µM)
Proteus vulgaris OXK US
  MIC: 0.78 µg/mL (≈ 1.42 µM)
[5]
  MIC: > 100 µg/mL
[6]; ethyl acetate, butyl acetate
  Solubility in methanol, ethanol, ethyl acetate, butyl acetate and other organic solvents: scarcely soluble
[6]
  Solubility in water: Easily soluble

## CO[C@@]1(NC(=O)CCCC(=O)O)C(=O)N2C(C(=O)O)=C(COC(=O)/C=C/c3ccc(O)cc3)CS[C@@H]21 [Compound (D), 7β-(4-carboxybutyramido)-3-(p-hydroxycinnamoyloxymethyl)-7α-methoxy-Δ^3-cephem-4-carboxylic acid]
Proteus mirabilis; 100 γ/ml
  diameter of inhibitory circle: 18.0
Proteus mirabilis; 500 γ/ml
  diameter of inhibitory circle: 27.7
Salmonella gallinarum; 100 γ/ml
  diameter of inhibitory circle: 11.5
Salmonella gallinarum; 500 γ/ml
  diameter of inhibitory circle: 16.2
[1]
  MIC: 100 µg/mL (≈ 192 µM)
[2]
  MIC: 50 µg/mL (≈ 96.1 µM)
Escherichia coli NIHJ
  MIC: 6.25 µg/mL (≈ 12 µM)
[3]
  MIC: 12.5 µg/mL (≈ 24 µM)
Salmonella typhi H901W
  MIC: 25 µg/mL (≈ 48 µM)
[4]
  MIC: 25 µg/mL (≈ 48 µM)
Shigella boydii IID 627
  MIC: 12.5 µg/mL (≈ 24 µM)
Proteus mirabilis IMFOM9
  MIC: 6.25 µg/mL (≈ 12 µM)
Proteus vulgaris OXK US
  MIC: 3.13 µg/mL (≈ 6.01 µM)
[5]
  MIC: > 100 µg/mL
[6]
  Hygroscopicity: Very hygroscopic
  Solubility in water: Easily soluble
[6]; ethyl acetate, butyl acetate, n-butanol and other organic solvents
  Solubility in ethyl acetate, butyl acetate, n-butanol and other organic solvents: scarcely soluble
[6]; methanol and ethanol
  Solubility in methanol and ethanol: slightly soluble

## CO[C@@]1(NC(=O)CCCC(N)C(=O)O)C(=O)N2C(C(=O)O)=C(CSc3nnnn3C)CS[C@@H]21 (some centres unmarked) [Y-G19Z-G, 7(5-amino-5-carboxyvaleramido)-7-methoxy-3-(1-methyl-1H-tetrazol-5-yl)thimethyl-Δ^3cephem-4-carboxylic acid, reference compound]
Proteus mirabilis; 100 γ/ml
  diameter of inhibitory circle: 21.6
Proteus mirabilis; 500 γ/ml
  diameter of inhibitory circle: 27.0
Salmonella gallinarum; 100 γ/ml
  diameter of inhibitory circle: 18.5
Salmonella gallinarum; 500 γ/ml
  diameter of inhibitory circle: 21.5

## CO[C@@]1(NC(=O)CCCC(=O)O)C(=O)N2C(C(=O)O)=C(CSc3nnnn3C)CS[C@@H]21 [Y-G19Z-GG, 7(4-carboxybutyramido)-7-methoxy-3-(1-methyl-1H-tetrazol-5-yl)thio-methylΔ^3cephem-4-carboxylic acid, reference compound]
Proteus mirabilis; 500 γ/ml
  diameter of inhibitory circle: 19.0
Salmonella gallinarum; 500 γ/ml
  diameter of inhibitory circle: 16.0
